Common to all, as to assay type: cell-based, rat
In one assay the test system is NRVMs. Put plainly: Cardiomyocyte hypertrophy (cell size, α-actinin immunostaining) in NRVMs. The text has this: A-H, Cardiomyocyte size was detected by immunostaining with anti-α-actinin antibody. […] The cells were fixed and analyzed for GFP-HDAC5 localization, α-actinin staining and nuclear DAPI staining *, p<0.05 versus without PE; #, p<0.05 versus with PE alone. I, Schematic model for PKA-dependent regulation of HDAC5 subcellular localization and gene transcription.
Cardiomyocyte protein marker α-actinin was detected by immunofluorescence using antibody against α-actinin and fluorescein-conjugated secondary antibody.
After 24 hour culture, cells were maintained in serum-free DMEM medium for additional 24 hours, and then exposed to various inducers or inhibitors (for 30 minutes) prior to PE or PMA stimulation for indicated times. The cells were washed with PBS and fixed with 3.7% formaldehyde in PBS. Images were captured at a magnification of ×60, using a fluorescence microscope (Olympus BX51) equipped with a digital camera and Spot software system (RT Color Diagnostic Instruments). For analysis of the myocyte marker, sarcomeric α-actinin antibody and DAPI in neonatal cardiomyocyte, immunocytochemistry were performed according to a standard protocol. For subcellular localization of endogenous HDAC5 in cardiomyocyes, we fixed cells and used the detergent Saponin (Sigma, 84510) to make cells permeable, and then performed immunocytochemistry with anti-HDAC5 antibody (Santa Cruz, sc-11419). For subcellular localization of HDAC5, total around 200 cells were counted in each condition. For cardiomyocyte size, total myocyte surface areas were calculated using NIH Image J software, and expressed as the average of 100 randomly selected cells per condition.

Assay [1] relates to MEF2 transcriptional activity. Kind of assay: 3xMEF2-luciferase reporter assay in NRVMs. The settings on record: PE 24 hours. The procedure: (§1) The mRNA was extracted from the cell lysates and then RT-PCR with the primers for ANF, β-MHC, α-SMA, and GADPH (internal control) was performed. *, p<0.05 versus PE+Ad-GFP; #, p<0.05 versus PE+GFP-HDAC5-WT, n=4.
To assess MEF2 and CREB transcriptional activation, an adenovirus was used that encoded a 3×MEF2-dependent reporter gene in which three tandem repeats of MEF2 sites were located upstream of the thymidine kinase gene promoter and plasmid encoding CREB-dependent reporter gene. NRVMs or Cos7 cells cultured in 24-well were co-transfected with 3×MEF2 or CREB luciferase reporter gene and adenovirus encoding LacZ or GFP-HDAC5-WT, GFP-HDAC5-S280A mutant and GFP-HDAC5-S280D mutant. […] The luciferase activities in cell lysates were determined using the Dual-Luciferase Reporter Assay kit (Promega) and Wallac 1420 multi-label counter (PerkinElmer) as described previously (4, 5).
Background: A reporter such as luciferase makes a cellular process visible.

The test system of assay [2] is ANF, β-MHC, α-SMA expression. Put plainly: RT-PCR of cardiac fetal gene expression in NRVMs. Conditions: PE 24 hours. The procedure: as §1
The mRNA was extracted from the cell lysates, and quantitative RT-PCR with the primers for ANF and GADPH (internal control) were performed as described in the Examples. Quantitative data are shown (n=4).
Total RNA was isolated from NRVM using TRIzol (Invitrogen Corp.). Firststrand cDNA was synthesized with the SuperScript Preamplification System (Gibco-BRL). cDNA was amplified by PCR for 30 cycle (Applied Biosystem) as described previously (4, 5). Rat GAPDH served as an internal control. The following oligonucleotide primers were used in this study: rat ANF, sense 5′-[…]-3′ (SEQ ID NO:11) and antisense 5′-[…]-3′(SEQ ID NO:12) rat α-SMA, sense 5′-[…]-3′ (SEQ ID NO:13) and antisense 5′-[…]-3′ (SEQ ID NO:14); rat β-MHC (myosin heavy chain), sense 5′-[…]-3′ (SEQ ID NO:15) and antisense 5′-[…]-3′ (SEQ ID NO:16); rat GAPDH, sense 5′-[…]-3′ (SEQ ID NO:17) and antisense 5′-[…]-3′ (SEQ ID NO:18). Experiments were repeated three times.

The text below walks through data of patent US20130156753A1 (UNIVERSITY OF ROCHESTER, priority 2010, published 2013).

Each structure is given as a SMILES string.

On to `CCCC(=O)Nc1ncnc2c1ncn2[C@@H]1O[C@@H]2COP(=O)(O)O[C@H]2[C@H]1OC(=O)CCC` [cAMP, Dibutyryl-cAMP], for which the “size of cardiomyocytes after PE” value in the assay with NRVMs (NRVMs with GFP-HDAC5-WT, cAMP 30 min, PE 24 hours) is “decreased the size of cardiomyocytes”. Besides, the “PE/Angiotensin II-induced cardiomyocyte hypertrophy” value in the assay on NRVMs (NRVMs, forskolin 10 μM, cAMP 500 μM, Rolipram 10 μM 30 min, PE or Angiotensin II 24 hours) is recorded as “inhibit PE/Angiotensin II-induced cardiomyocyte hypertrophy”. Also, the “decrease in MEF2 transcriptional activation with HDAC5-S280A” value in assay [1] (NRVMs co-infected with adenoviral GFP-HDAC5-S280A) is recorded as “abolished the decrease in MEF2 transcriptional activation by cAMP”. Besides, in assay [1] (NRVMs with GFP alone or GFP-HDAC5-WT, 30 min pretreatment), the “PE-stimulated MEF2 transcriptional activity” value is reported as “significantly inhibited PE-stimulated MEF2 transcriptional activity”. The “PE-elevated expression of ANF, β-MHC and α-SMA” value in assay [2] (NRVMs with GFP-HDAC5-WT, cAMP pretreatment) is given as “blocked this elevated gene expression”. Further, the “PE-induced ANF expression (quantitative RT-PCR)” value in assay [2] (NRVMs, cAMP 30 min) is given as “decreases PE-induced ANF expression”.
